Reference: patent US7183067B2 (priority 2002, dated 2007)

How the values were obtained:
Pea Lectin (PSA) = biological target: T1, Pea Lectin (PSA) (Pisum sativum, UniProt P02867); test: SPR measurement of ligand-introduced chip with PSA; assay type: binding
T1 construct: purchased SEIKAGAKU KOGYO
T1 sequence (P02867 31-211 limits assumed): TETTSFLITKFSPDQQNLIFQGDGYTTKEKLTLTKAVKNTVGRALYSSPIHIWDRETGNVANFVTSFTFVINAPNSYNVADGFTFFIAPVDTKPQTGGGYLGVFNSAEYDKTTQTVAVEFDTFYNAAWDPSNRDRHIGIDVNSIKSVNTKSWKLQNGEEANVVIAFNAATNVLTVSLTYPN
T1 sequence (P02867 218-269 limits assumed): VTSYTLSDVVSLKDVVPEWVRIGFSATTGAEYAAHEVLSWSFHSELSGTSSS
Experimental: (§1) PBS solutions containing proteins of various concentrations were flown onto the ligand-introduced chip obtained in (5-1) by 60 μL at a flow rate of 20 μL/min so as to observe the binding and dissociating behavior of the ligand-introduced chip with each protein by an SPR measurement.
(§2) The following proteins were used. • BSA (SIGMA ALUBMUN, BOVINE) • Concanavalin A (SEIKAGAKU KOGYO) • Pea Lectin (SEIKAGAKU KOGYO) • Peanut Lectin (SEIKAGAKU KOGYO) • RCA120 (SEIKAGAKU KOGYO)
(§3) Moreover, Con A of various concentrations was acted on the ligand-introduced chip so as to conduct an SPR measurement on an interaction. Also, an SPR measurement was also conducted on an interaction with BSA and PSA so as to observe a resonant angle change.
(§4) Further, ligand-introduced chips were produced which includes 4-Mal and 4-Glc of the present invention and 2-Mal and 2-Glc serving as a comparative example immobilized thereon. Con A, BSA, PSA, RCA120, and PNA solutions of various concentrations were flown onto the ligand-introduced chips so as to observe a resonant angle change by an SPR measurement.

concanavalin A (Con A) [1] = biological target: T2, concanavalin A (Con A) (Canavalia ensiformis, UniProt P02866); test: biochemical; assay type: binding
T2 construct: purchased SEIKAGAKU KOGYO

neutroavidin = biological target: T3, neutroavidin (Gallus gallus, UniProt P02701); test: Immobilization of ligand onto neutroavidin-immobilized SPR sensor chip; assay type: binding; details: ligand solutions flown until no further increase
T3 construct: purchased PIERCE CA47105
Experimental: The ligand-introduced chip was obtained by the following procedure. In the beginning, a sensor chip (manufactured by Japan Laser Electronics Co., Ltd.), prepared by depositing a gold thin film of 50 nm thick on a glass substrate of 13 mm×20 mm×0.7 mm, was placed in a UV ozone cleaner (product name: NL-UV253, Japan Laser Electronics Co., Ltd.) and was exposed to ultraviolet rays for 20 minutes so as to wash the surface of the sensor chip with ozone. Next, the sensor chip was immersed in a 4,4′-methanol dithiobutyrate solution (100 μM) in a Petri dish and gently shaken for 30 minutes at room temperature (product name: Bio Dancer, New Brunswick Scientific Co., Ltd.). 4-thiobutyric acid was immobilized onto the chip through a gold-sulfur bond. The chip was washed three times with ethanol. […] A surface plasmon resonant angle change then observed was monitored. […]
Next, 4.9 μM, 16.3 μM, and 49 μM 4-Mal solutions were flown onto (S) by 60 μL at a flow rate of 10 μL/min for immobilization; 0.49 μM and 4.9 μM 4-Glc solutions were flown onto (R) by 60 μL at a flow rate of 10 μL/min for immobilization. […] A resonant angle change quantity between a point of time when the resonant angle change had become constant and a point of time before the immobilization was defined as a immobilization quantity. […] In this sensorgram, the immobilization quantity of 4-Mal was 220 RU and that of 4-Gcl was 220 RU. […]

BSA = biological target: T4, BSA (Bos taurus, UniProt P02769); test: SPR measurement of ligand-introduced chip with BSA; assay type: binding, bovine
T4 construct: purchased SIGMA
Experimental: as §1, §2, §3, §4

concanavalin A (Con A) [2] = biological target: T2, concanavalin A (Con A); test: Affinity chromatography on 4-Mal affinity column, SDS-PAGE of fractions: Con A; assay type: binding; details: mixed solution of Con A, PSA and BSA in PBS; elution with PBS, glucose, NaOH
Experimental: Following a general producing method of an affinity column, an affinity column including the ligand 4-Mal, obtained in Example 4, immobilized thereto. As a column carrier, Hitrap NHS-activated Hp (column volume 1 mL; manufactured by Amersham Co., Ltd.) was used. The column carrier, including a gel matrix and N-hydroxysuccinimide serving as an active group immobilized thereon through a spacer ([…] NHS group per 1 mL gel), is suitable to immobilizing onto a carrier a compound having an amino group. FIG. 6 is a schematic diagram showing the steps for preparation of an affinity column. […]
Absorbance of the fractions collected by the affinity chromatography in (6-2) was measured at a wavelength of 280 nm using an ultraviolet spectrometer. […]
The fractions (1 mL) so collected were freeze-dried and then mixed with the ion exchanged water (100 μL) so as to dissolve the fractions again. […] A ready-made gel (ATTO PAGEL-Compact AE-6000 (containing SDS 12.5%)) was set in an electrophoretic cell filled with the electrophoresis buffer solution. […]
Specifically, 12.5% acrylamide gel (ATTO PAGEL-Compact AE-6000) was used to perform SDS-PAGE, and Coomassie brilliant blue was used for dyeing, the result of which is shown in FIG. 8. […] In the Mix-3 fraction, BSA and PSA bands disappeared and only Con A band was detected. […]

[3] = 1.0 μM Con A, Mal ligand chip against Glc ligand chip (2-channel), PBS pH 7.4, 25° C.

T3 sequence (P02701 25-152): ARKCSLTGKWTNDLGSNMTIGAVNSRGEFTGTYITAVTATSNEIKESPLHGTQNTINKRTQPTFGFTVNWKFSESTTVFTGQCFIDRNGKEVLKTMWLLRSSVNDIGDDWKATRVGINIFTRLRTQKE

SMILES	specific interaction with PSA by SPR (Pea Lectin (PSA))	binding of Con A to ligand by SPR (concanavalin A (Con A) [1])	KD (kd/ka): dissociation constant (concanavalin A (Con A) [1]; [3])	kd: dissociation velocity constant (concanavalin A (Con A) [1]; [3])	ligand immobilization quantity (resonant angle change) (neutroavidin)	specific interaction with BSA by SPR (BSA)	retention of Con A on affinity column (concanavalin A (Con A) [2])	Kd (concanavalin A (Con A) [1])	kon (concanavalin A (Con A) [1]; 1.0 μM Con A, Mal ligand chip against Glc ligand chip (2-channel), PBS pH 7.4, 25° C., read-out: ka: binding velocity constant)
O=C(CCN(CCC(=O)NCCN(CCC(=O)Nc1cccc(NCC(O)C(O)C(OC2OC(CO)C(O)C(O)C2O)C(O)CO)c1)CCC(=O)Nc1cccc(NCC(O)C(O)C(OC2OC(CO)C(O)C(O)C2O)C(O)CO)c1)C(=O)CCCCC1SCC2NC(=O)NC21)NCCN(CCC(=O)Nc1cccc(NCC(O)C(O)C(OC2OC(CO)C(O)C(O)C2O)C(O)CO)c1)CCC(=O)Nc1cccc(NCC(O)C(O)C(OC2OC(CO)C(O)C(O)C2O)C(O)CO)c1 (stereo not shown) [Compound 4-Mal]	do not specifically interact	firmly binds	0.59 ± 0.06 µM	0.72 ± 0.021 s^−1 × 10^−2	220 RU	do not specifically interact	A majority of Con A was retained		
O=C1N[C@H]2[C@H](CS[C@H]2CCCCC(=O)N(CCNC(=O)c2ccc(NC[C@H](O)[C@@H](O)[C@H](O[C@H]3O[C@H](CO)[C@@H](O)[C@H](O)[C@H]3O)[C@H](O)CO)cc2)CCNC(=O)c2ccc(NC[C@H](O)[C@@H](O)[C@H](O[C@H]3O[C@H](CO)[C@@H](O)[C@H](O)[C@H]3O)[C@H](O)CO)cc2)N1 [Compound 2-Mal, reference compound]				1.4 ± 0.86 s^−1 × 10^−2				0.96 ± 0.05 µM	15000 ± 8600 M⁻¹ s⁻¹
